One data set has as its system Septoria tritici. Kind of data set: Fungicidal activity: leaf blotch of wheat, one-day protectant and three-day curative tests on wheat plants. It is filed as in vivo. The conditions noted are these: Zymoseptoria tritici. The protocol: Example 16: Evaluation of Fungicidal Activity: Leaf Blotch of Wheat (Mycosphaerella graminicola; anamorph: Septoria tritici; Bayer code SEPTTR)
Wheat plants (variety Yuma) were grown from seed in a greenhouse in 50% mineral soil/50% soil-less Metro mix until the first leaf was fully emerged, with 7-10 seedlings per pot. These plants were inoculated with an aqueous spore suspension of Septoria tritici either prior to or after fungicide treatments. After inoculation the plants were kept in 100% relative humidity (one day in a dark dew chamber followed by two to three days in a lighted dew chamber) to permit spores to germinate and infect the leaf. The plants were then transferred to a greenhouse for disease to develop.
The following tables present the activity of typical compounds of the present disclosure when evaluated in these experiments. The effectiveness of the test compounds in controlling disease was determined by assessing the severity of disease on treated plants, then converting the severity to percent control based on the level of disease on untreated, inoculated plants.
The following table presents the activity of typical compounds of the present disclosure when evaluated in these experiments. The effectiveness of the test compounds in controlling disease was determined by assessing the severity of disease on treated plants, then converting the severity to percent control based on the level of disease on untreated, inoculated plants.

[1] abbreviates: 24 h, read-out: SEPTTR 100 PPM 1 DP (% Disease Control rating).
[2] abbreviates: 72 h, read-out: SEPTTR 100 PPM 3 DC (% Disease Control rating).
[3] abbreviates: 24 h, One-Day Protectant (1 DP), 100 ppm, wheat plants (variety Yuma), read-out: SEPTTR 100 PPM 1 DP (% Disease Control rating).
[4] abbreviates: 72 h, Three-Day Curative (3 DC), 100 ppm, wheat plants (variety Yuma), read-out: SEPTTR 100 PPM 3 DC (% Disease Control rating).

Read-outs that look alike come from different tables or passages of the source.

Experimental findings from patent US10059703B2, “3-alkyl-5-fluoro-4-substituted-imino-3,4-dihydropyrimidin-2(1H)-one derivatives as fungicides” (Adama Makhteshim Ltd., priority 2012, dated 2018) are described below.

As a reminder, the melting point is the temperature, or range, at which the solid turns liquid. In the case of `Cn1c(=O)n(S(=O)(=O)c2cc(Cl)sc2Cl)cc(F)/c1=N\C(=O)Oc1ccccc1` [Compound F44], the melting point lay within 158 to 159 °C. Besides, the pest or weed control at 100 ppm in the data set with Septoria tritici (setting [1]) lay within 76 to 100%. In addition, the pest or weed control at 100 ppm in the data set with Septoria tritici (setting [2]) was in the range of 76 to 100%.

In turn, `C/N=c1\c(F)cn(S(=O)(=O)c2cccc(C#N)c2)c(=O)n1C` [Compound F7] returned a melting point of 148.6 to 150.6 °C. Besides, the pest or weed control at 100 ppm with Septoria tritici (setting [3]) fell in the range of 26 to 50%. The pest or weed control at 100 ppm in the data set with Septoria tritici (setting [4]) lay within 51 to 75%.

Consider `Cc1cc(S(=O)(=O)n2cc(F)/c(=N\Cc3ccccc3F)n(C)c2=O)c(C)cc1Cl` [Compound F58], for which the melting point was 208 to 210 °C. Moreover, the pest or weed control at 100 ppm in the data set on Septoria tritici (setting [3]) was 0 to 25%. Further, the pest or weed control at 100 ppm with Septoria tritici (setting [4]) is 0 to 25%.

`CCc1ccc(S(=O)(=O)n2cc(F)/c(=N\C(=O)OC)n(C)c2=O)cc1` [Compound F47] returned a melting point of 125 to 126 °C. Moreover, the pest or weed control at 100 ppm in the data set on Septoria tritici (setting [3]) was 0 to 25%. The pest or weed control at 100 ppm with Septoria tritici (setting [4]) was in the range of 0 to 25%.

As to `C/N=c1\c(F)cn(S(=O)(=O)c2cccc(OC)c2)c(=O)n1C` [Compound F12], the melting point is 111.4 to 112 °C. In the data set with Septoria tritici (setting [3]), the pest or weed control at 100 ppm lay in the range of 76 to 100%. Moreover, the pest or weed control at 100 ppm with Septoria tritici (setting [4]) was 76 to 100%.

`COC(=O)/N=c1\c(F)cn(S(=O)(=O)c2ccc(C(C)C)cc2)c(=O)n1C` [Compound F48]: the melting point lay within 116 to 117 °C. Besides, the pest or weed control at 100 ppm in the data set with Septoria tritici (setting [3]) lay within 0 to 25%. In addition, the pest or weed control at 100 ppm with Septoria tritici (setting [4]) fell in the range of 0 to 25%.

Consider `CCc1ccc(S(=O)(=O)n2cc(F)/c(=N\C(=O)Oc3ccccc3)n(C)c2=O)cc1` [Compound F40], for which the melting point is 188 to 190 °C. Also, the pest or weed control at 100 ppm with Septoria tritici (setting [1]) was 0 to 25%. Also, in the data set with Septoria tritici (setting [2]), the pest or weed control at 100 ppm was in the range of 0 to 25%.

For `Cc1ccc(S(=O)(=O)n2cc(F)/c(=N\C(=O)c3ccccc3)n(C(=O)c3ccccc3)c2=O)cc1` [Compound F37, (E)-N-(3-benzoyl-5-fluoro-2-oxo-1-tosyl-2,3-dihydropyrimidin-4(1H)-ylidene)benzamide], the melting point was 180.8 to 182.2 °C. Besides, the pest or weed control at 100 ppm in the data set with Septoria tritici (setting [3]) was in the range of 0 to 25%. Besides, the pest or weed control at 100 ppm in the data set on Septoria tritici (setting [4]) was in the range of 0 to 25%.

`C/N=c1\c(F)cn(S(=O)(=O)c2ccsc2)c(=O)n1C` [Compound F17] registered a melting point of 121.1 to 122.6 °C. For the same compound, in the data set on Septoria tritici (setting [3]), the pest or weed control at 100 ppm lay in the range of 76 to 100%. Further, in the data set on Septoria tritici (setting [4]), the pest or weed control at 100 ppm lay within 76 to 100%.

Compound `COC(=O)/N=c1\c(F)cn(S(=O)(=O)c2cc(C)c(Cl)cc2C)c(=O)n1C` [Compound F50] displayed a melting point of 178 to 179 °C. In addition, the pest or weed control at 100 ppm with Septoria tritici (setting [3]) was in the range of 0 to 25%. Besides, the pest or weed control at 100 ppm with Septoria tritici (setting [4]) was in the range of 0 to 25%.

`C/N=c1\c(F)cn(S(=O)(=O)c2cccc(F)c2)c(=O)n1C` [Compound F14]: the melting point fell in the range of 137.3 to 138.9 °C. In addition, the pest or weed control at 100 ppm with Septoria tritici (setting [3]) lay within 76 to 100%. The pest or weed control at 100 ppm with Septoria tritici (setting [4]) lay within 51 to 75%.

The compound `Cc1cc(S(=O)(=O)n2cc(F)/c(=N\C(=O)Oc3ccccc3)n(C)c2=O)c(C)cc1Cl` [Compound F43] had a melting point of 209 to 211 °C. Also, in the data set on Septoria tritici (setting [1]), the pest or weed control at 100 ppm lay within 0 to 25%. Moreover, the pest or weed control at 100 ppm with Septoria tritici (setting [2]) is 0 to 25%.

In the case of `COC(=O)/N=c1\c(F)cn(S(=O)(=O)c2cccc(C)c2)c(=O)n1C` [Compound F49], the melting point lay in the range of 200 to 201 °C. Further, the pest or weed control at 100 ppm with Septoria tritici (setting [3]) was 0 to 25%. For the same compound, the pest or weed control at 100 ppm in the data set on Septoria tritici (setting [4]) lay in the range of 0 to 25%.

Compound `Cc1cccc(S(=O)(=O)n2cc(F)/c(=N\Cc3ccccc3F)n(C)c2=O)c1` [Compound F57] gave a melting point of 177 to 180 °C. The pest or weed control at 100 ppm in the data set with Septoria tritici (setting [3]) lay in the range of 0 to 25%. In the data set on Septoria tritici (setting [4]), the pest or weed control at 100 ppm is 0 to 25%.

In the case of `C/N=c1\c(F)cn(S(=O)(=O)c2cc(Cl)cc(Cl)c2)c(=O)n1C` [Compound F20], the melting point fell in the range of 135 to 136.9 °C. In addition, the pest or weed control at 100 ppm with Septoria tritici (setting [3]) is 26 to 50%. Besides, the pest or weed control at 100 ppm in the data set on Septoria tritici (setting [4]) lay within 0 to 25%.

`COC(=O)/N=c1\c(F)cn(S(=O)(=O)c2ccccc2)c(=O)n1C` [Compound F45] showed a melting point of 185 to 186 °C. Besides, in the data set with Septoria tritici (setting [3]), the pest or weed control at 100 ppm was 0 to 25%. Further, the pest or weed control at 100 ppm in the data set with Septoria tritici (setting [4]) is 0 to 25%.

As for `CC(=O)/N=c1\c(F)cn(S(=O)(=O)c2cccc(C)c2)c(=O)n1C` [Compound F34], the melting point was 164 °C. For the same compound, the pest or weed control at 100 ppm with Septoria tritici (setting [3]) is 76 to 100%. In addition, the pest or weed control at 100 ppm in the data set on Septoria tritici (setting [4]) is 0 to 25%.

The compound `C/N=c1\c(F)cn(S(=O)(=O)c2ccc(OC)cc2)c(=O)n1C` [Compound F1, (E)-5-fluoro-1-((4-methoxyphenyl)sulfonyl)-3-methyl-4-(methylimino)-3,4-dihydropyrimidin-2(1H)-one] had a melting point of 97 to 105 °C. In addition, the pest or weed control at 100 ppm in the data set with Septoria tritici (setting [3]) is 76 to 100%. The pest or weed control at 100 ppm in the data set on Septoria tritici (setting [4]) lay in the range of 51 to 75%.

The compound `C/N=c1\c(F)cn(S(=O)(=O)c2cccc(C)c2)c(=O)n1C` [Compound F16] showed a melting point of 123.7 to 125.8 °C. Besides, the pest or weed control at 100 ppm with Septoria tritici (setting [3]) lay within 26 to 50%. In addition, the pest or weed control at 100 ppm with Septoria tritici (setting [4]) lay in the range of 0 to 25%.

Turning to `C/N=c1\c(F)cn(S(=O)(=O)c2ccccc2OC)c(=O)n1C` [Compound F8], the melting point is 204 to 205.4 °C. Further, the pest or weed control at 100 ppm in the data set with Septoria tritici (setting [3]) was 76 to 100%. Also, the pest or weed control at 100 ppm with Septoria tritici (setting [4]) lay within 76 to 100%.

`C/N=c1\c(F)cn(S(=O)(=O)c2c(C)cc(C)cc2C)c(=O)n1C` [Compound F15] had a melting point of 175.7 to 177.6 °C. The pest or weed control at 100 ppm with Septoria tritici (setting [3]) is 26 to 50%. In addition, the pest or weed control at 100 ppm with Septoria tritici (setting [4]) is 26 to 50%.

With `C/N=c1\c(F)cn(S(=O)(=O)c2cn(C)nc2C)c(=O)n1C` [Compound F18], the melting point was in the range of 147 to 149 °C. Moreover, in the data set with Septoria tritici (setting [3]), the pest or weed control at 100 ppm lay in the range of 26 to 50%. In the data set on Septoria tritici (setting [4]), the pest or weed control at 100 ppm is 76 to 100%.

In the case of `C/N=c1\c(F)cn(S(=O)(=O)c2ccc(OC(F)(F)F)cc2)c(=O)n1C` [Compound F6], the melting point is 139.2 to 140 °C. In addition, the pest or weed control at 100 ppm in the data set with Septoria tritici (setting [3]) lay in the range of 76 to 100%. Further, the pest or weed control at 100 ppm in the data set on Septoria tritici (setting [4]) is 76 to 100%.

Regarding `C/N=c1\c(F)cn(S(=O)(=O)c2cc(OC)ccc2OC)c(=O)n1C` [Compound F11], the melting point is 115 to 117.8 °C. Moreover, the pest or weed control at 100 ppm in the data set with Septoria tritici (setting [3]) lay within 76 to 100%. The pest or weed control at 100 ppm in the data set on Septoria tritici (setting [4]) fell in the range of 76 to 100%.

For the compound `CC(=O)/N=c1\c(F)cn(S(=O)(=O)c2ccc(C(C)C)cc2)c(=O)n1C` [Compound F33], the melting point was determined as 165 °C. In the data set with Septoria tritici (setting [3]), the pest or weed control at 100 ppm lay within 76 to 100%. Further, in the data set on Septoria tritici (setting [4]), the pest or weed control at 100 ppm was 26 to 50%.

Compound `COC(=O)/N=c1\c(F)cn(S(=O)(=O)c2ccc(OC)cc2)c(=O)n1C` [Compound F27, methyl (5-fluoro-1-((4-methoxyphenyl)sulfonyl)-3-methyl-2-oxo-2,3-dihydropyrimidin-4(1H)-ylidene)carbamate] gave a melting point of 124 to 125 °C. Besides, in the data set with Septoria tritici (setting [3]), the pest or weed control at 100 ppm lay in the range of 0 to 25%. Also, in the data set on Septoria tritici (setting [4]), the pest or weed control at 100 ppm fell in the range of 0 to 25%.

`C/N=c1\c(F)cn(S(=O)(=O)c2c(C)noc2C)c(=O)n1C` [Compound F19] showed a melting point of 130.1 to 131.1 °C. Also, the pest or weed control at 100 ppm in the data set with Septoria tritici (setting [3]) lay within 0 to 25%. The pest or weed control at 100 ppm in the data set with Septoria tritici (setting [4]) fell in the range of 51 to 75%.

For `CCc1ccc(S(=O)(=O)n2cc(F)/c(=N\Cc3ccccc3F)n(C)c2=O)cc1` [Compound F55], the melting point lay in the range of 140 to 141 °C. For the same compound, the pest or weed control at 100 ppm in the data set with Septoria tritici (setting [3]) lay within 0 to 25%. For the same compound, in the data set on Septoria tritici (setting [4]), the pest or weed control at 100 ppm was in the range of 0 to 25%.

Compound `CCc1ccc(S(=O)(=O)n2cc(F)/c(=N\C(C)=O)n(C)c2=O)cc1` [Compound F32] returned a melting point of 158 °C. The pest or weed control at 100 ppm in the data set on Septoria tritici (setting [3]) was in the range of 76 to 100%. Also, the pest or weed control at 100 ppm in the data set with Septoria tritici (setting [4]) was in the range of 76 to 100%.
